The target in test [1] is T1, human VR1 (Homo sapiens, UniProt Q8NER1).
T1 construct: expressed in transfected cells; host or cells: HEK293
Nature of the test: Human VR1 functional assay (intracellular Ca++, FLIPR, capsaicin challenge). In kind it is cell-based. Here is the method:
The functional activity of the test compounds was determined by measuring changes in intracellular calcium concentration using a Ca^++-sensitive fluorescent dye and FLIPR™ technology.
EC50 or IC50 values were determined from dose-response studies.

Test [2] concerns the target T1, human VR1. Briefly: Human VR1 [3H] RTX binding assay. The conditions noted are these: for Ki: hVR1; for inhibition at 1 µM: compound at 1 μM. Here is the method:
Compounds of the present invention were tested for their ability to inhibit the binding of [^3H] RTX to hVR1 receptors in a [^3H]
HEK293 cells were transfected with human VR1 vanilloid receptors and washed with Hank's Balanced Salt Solution, dissociated with cell dissociation buffer (Sigma), and then centrifuged at 1000×g for 5 min. […] The pelleted membranes were kept in an −80° C. freezer.
Approximately 120 μg protein/ml from membranes were incubated with indicated concentrations of [^3H] RTX in 0.5 ml of the HEPES buffer (pH 7.4) containing 0.25 mg/mL fatty acid-free bovine serum albumin at 37° C. for 60 min. […] The tip of the microcentrifuge tube containing the pellet was cut off. Bound radioactivity was quantified by scintillation counting. Non-specific binding was tested in the presence of 200 nM unlabeled RTX.

Setting [3] is: hVR1, capsaicin challenge, read-out: FLIPR functional assay IC50 hVR1.
Setting [4] is: 3H-RTX binding, read-out: 3H-RTX binding assay Ki hVR1.
[5] abbreviates: FLIPR functional assay IC50 hVR1 60 min, 60 min.
The mark [6] stands for this setting: 3H-RTX binding assay Ki hVR1, 3H-RTX binding.

Values joined by “and” are separate entries in the source; they are usually repeats but may differ in a detail not shown here. Identical values can stand only once. Like-named read-outs stand apart in the source and are kept apart here.

T1 sequence (Q8NER1 whole entry): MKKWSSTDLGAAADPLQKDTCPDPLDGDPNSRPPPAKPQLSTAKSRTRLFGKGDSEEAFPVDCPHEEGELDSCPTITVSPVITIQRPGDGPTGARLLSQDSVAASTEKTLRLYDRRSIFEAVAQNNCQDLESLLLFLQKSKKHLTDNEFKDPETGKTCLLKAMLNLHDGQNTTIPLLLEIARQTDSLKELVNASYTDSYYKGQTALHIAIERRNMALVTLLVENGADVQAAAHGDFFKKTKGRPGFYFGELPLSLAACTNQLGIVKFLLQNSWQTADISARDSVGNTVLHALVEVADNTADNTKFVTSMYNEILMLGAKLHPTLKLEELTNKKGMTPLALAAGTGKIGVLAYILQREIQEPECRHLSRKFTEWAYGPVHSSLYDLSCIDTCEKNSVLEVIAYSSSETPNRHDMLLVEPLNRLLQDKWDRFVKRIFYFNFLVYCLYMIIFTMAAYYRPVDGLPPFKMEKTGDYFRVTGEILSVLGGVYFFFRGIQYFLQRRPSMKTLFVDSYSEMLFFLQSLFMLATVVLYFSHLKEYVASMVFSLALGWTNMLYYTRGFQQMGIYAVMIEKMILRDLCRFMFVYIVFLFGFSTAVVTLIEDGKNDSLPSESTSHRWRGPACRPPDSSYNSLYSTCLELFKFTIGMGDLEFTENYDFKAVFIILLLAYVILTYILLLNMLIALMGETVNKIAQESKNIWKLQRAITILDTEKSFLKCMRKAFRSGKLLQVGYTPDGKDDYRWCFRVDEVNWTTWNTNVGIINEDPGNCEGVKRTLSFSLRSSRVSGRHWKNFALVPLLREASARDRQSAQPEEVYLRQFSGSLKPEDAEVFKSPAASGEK

As usually defined, the IC50 is the point on the concentration scale where inhibition reaches its midpoint. One may read the Ki as a dissociation constant, usually derived from enzyme kinetics or from competition with a known ligand. As to `CCCCC(C)c1ccc(C(=O)Nc2cnc3ccccc3c2)cc1` (stereo not shown), the IC50 in test [1] (setting [3]) is 1100 nM and 10000 nM. For the same molecule, the Ki in test [2] (setting [4]) was 13.2 nM and 15 nM.
As usually defined, the inhibition is the change of the read-out against control, counted positive when it falls. Take `CC(C)=CCC[C@H](C)CCN(C)c1ccc(C(=O)Nc2cnc3ccccc3c2)cc1`: the IC50 in test [1] (setting [5]) came to 150 nM. The inhibition at 1 µM in test [2] (3H-RTX binding) worked out at 105%. The Ki in test [2] (setting [4]) was 12.9 nM.
For the molecule `O=C(Nc1cnc2ccccc2c1)c1ccc(N2CC[C@@H]3CCCC[C@@H]3C2)cc1` (relative stereo) [cis-4-(Octahydro-isoquinolin-2-yl)-N-quinolin-3-yl-benzamide], the IC50 in test [1] (setting [5]) amounted to 220 nM; in test [1] (setting [3]), 185 nM. In test [2] (3H-RTX binding), the inhibition at 1 µM worked out at 105%. For the same molecule, the Ki in test [2] (setting [4]) worked out at 45.6 nM.
Regarding `O=C(Nc1cnc2ccccc2c1)c1ccc(N2CC[C@@H]3CCCC[C@@H]3C2)nc1` (relative stereo) [cis-6-(Octahydro-isoquinolin-2-yl)-N-quinolin-3-yl-nicotinamide], the IC50 in test [1] (setting [3]) came out at 420 nM. Besides, the inhibition at 1 µM in test [2] (3H-RTX binding) is 99%. Further, the Ki in test [2] (setting [4]) worked out at 36.8 nM.
On the same counts, the results for `O=C(Nc1cnc2ccccc2c1)c1ccc(N2CC[C@@H]3CCCC[C@H]3C2)nc1` (relative stereo) [trans-6-(Octahydro-isoquinolin-2-yl)-N-quinolin-3-yl-nicotinamide] are 85 nM, 104% and 33.2 nM.
As to `CC(=O)N1CCc2cc(C(=O)Nc3cnc4ccccc4c3)ccc21` [1-Acetyl-2,3-dihydro-1H-indole-5-carboxylic acid quinolin-3-ylamide], the IC50 in test [1] (setting [3]) came out at 3150 nM. For the same molecule, the inhibition at 1 µM in test [2] (3H-RTX binding) turned out to be 1%.
For `O=C(Nc1cnc2ccccc2c1)c1ccc2c(c1)CCN2C(=O)c1ccccc1` [1-Benzoyl-2,3-dihydro-1H-indole-5-carboxylic acid quinolin-3-ylamide], in that order: 1450 nM and 3%.
On the same counts, the results for `CCCC(=O)N1CCc2cc(C(=O)Nc3cnc4ccccc4c3)ccc21` [1-Butyryl-2,3-dihydro-1H-indole-5-carboxylic acid quinolin-3-ylamide] are 1800 nM and 2%.
`O=C(Nc1cnc2ccccc2c1)c1ccc2c(c1)CCN2C(=O)C1CCCCC1` [1-Cyclohexanecarbonyl-2,3-dihydro-1H-indole-5-carboxylic acid quinolin-3-ylamide]: in test [1] (setting [3]), the IC50 came to 1500 nM. In test [2] (3H-RTX binding), the inhibition at 1 µM amounted to 25%.
As to `O=C(Nc1cnc2ccccc2c1)c1ccc2c(c1)CCN2C1CCCCC1` [1-Cyclohexyl-2,3-dihydro-1H-indole-5-carboxylic acid quinolin-3-ylamide], the IC50 in test [1] (setting [5]) is 74 nM; in test [1] (setting [3]), 44 nM. Also, in test [2] (3H-RTX binding), the inhibition at 1 µM came to 103%. In addition, the Ki in test [2] (setting [4]) amounted to 4.87 nM.
As for `CC(C)n1c(C(F)(F)F)nc2cc(C(=O)Nc3cnc4ccccc4c3)ccc21` [1-Isopropyl-2-trifluoromethyl-1H-benzoimidazole-5-carboxylic acid quinolin-3-ylamide], the IC50 in test [1] (setting [3]) stood at 8000 nM. For the same molecule, the Ki in test [2] (setting [4]) is 364 nM.
For the molecule `CN1CCCc2cc(C(=O)Nc3cnc4ccccc4c3)ccc21` [1-Methyl-1,2,3,4-tetrahydro-quinoline-6-carboxylic acid quinolin-3-ylamide], the IC50 in test [1] (setting [3]) turned out to be 690 nM. The inhibition at 1 µM in test [2] (3H-RTX binding) turned out to be 79%. Further, the Ki in test [2] (setting [4]) worked out at 341 nM.
On to `CN1CCc2cc(C(=O)Nc3cnc4ccccc4c3)ccc21` [1-Methyl-2,3-dihydro-1H-indole-5-carboxylic acid quinolin-3-ylamide], for which the IC50 in test [1] (setting [3]) is 900 nM. The inhibition at 1 µM in test [2] (3H-RTX binding) was determined as 12%.
For the molecule `CCCCCN1CCCc2cc(C(=O)Nc3cnc4ccccc4c3)ccc21` [1-Pentyl-1,2,3,4-tetrahydro-quinoline-6-carboxylic acid quinolin-3-ylamide], the IC50 in test [1] (setting [5]) was determined as 470 nM; in test [1] (setting [3]), 1600 nM. In test [2] (setting [6]), this molecule had a Ki of 39.1 nM. In addition, in test [2] (3H-RTX binding), the inhibition at 1 µM came to 93%.
`CCCCCn1ccc2cc(C(=O)Nc3cnc4ccccc4c3)ccc21` [1-Pentyl-1H-indole-5-carboxylic acid quinolin-3-ylamide] yielded an IC50 in test [1] (setting [5]) of 150 nM. In test [2] (setting [6]), this molecule showed a Ki of 63.1 nM. For the same molecule, the inhibition at 1 µM in test [2] (3H-RTX binding) was 95%.
`CCCN1CCc2cc(C(=O)Nc3cnc4ccccc4c3)ccc21` [1-Propyl-2,3-dihydro-1H-indole-5-carboxylic acid quinolin-3-ylamide]: the IC50 in test [1] (setting [3]) stood at 410 nM. Also, in test [2] (3H-RTX binding), the inhibition at 1 µM came to 93%. Moreover, the Ki in test [2] (setting [4]) was 15.6 nM.
For `O=C(Nc1cnc2ccccc2c1)c1ccc2c(c1)CCN2` [2,3-Dihydro-1H-indole-5-carboxylic acid quinolin-3-ylamide], the IC50 in test [1] (setting [3]) amounted to 10500 nM. Further, the inhibition at 1 µM in test [2] (3H-RTX binding) was 1%.
On the same counts, the results for `CCCCCNc1ccc(C(=O)Nc2cnc3ccccc3c2)c(Cl)c1` [2-Chloro-4-pentylamino-N-quinolin-3-yl-benzamide] are 10000 nM and 40%.
For `CCCCCCCNc1ccccc1C(=O)Nc1cnc2ccccc2c1` [2-Heptylamino-N-quinolin-3-yl-benzamide], the values for the IC50 in test [1] (setting [5]) and in test [1] (setting [3]) were 5000 nM and 1600 nM, respectively. Also, the inhibition at 1 µM in test [2] (3H-RTX binding) was determined as 79%. The Ki in test [2] (setting [4]) amounted to 1120 nM.
Regarding `O=C(Nc1cnc2ccccc2c1)c1ccc(N2CCCCC2)nc1` [3,4,5,6-Tetrahydro-2H-{1,2′}bipyridinyl-5′-carboxylic acid quinolin-3-ylamide], the IC50 in test [1] (setting [5]) amounted to 140 nM; in test [1] (setting [3]) it was 4300 nM. The Ki in test [2] (setting [4]) came out at 20.5 nM.
`O=C(CCc1ccc2c(c1)CCN2CC1CCCCC1)Nc1cnc2ccccc2c1` [3-(1-Cyclohexylmethyl-2,3-dihydro-1H-indol-5-yl)-N-quinolin-3-yl-propionamide]: the IC50 in test [1] (setting [3]) is 1200 nM. Also, the inhibition at 1 µM in test [2] (3H-RTX binding) stood at 61%. The Ki in test [2] (setting [4]) was found to be 512 nM.
On the same counts, the results for `CCCn1ccc2cc(CCC(=O)Nc3cnc4ccccc4c3)ccc21` [3-(1-Propyl-1H-indol-5-yl)-N-quinolin-3-yl-propionamide] are 480 nM, 59% and 264 nM.
For `CCCN1CCc2cc(CCC(=O)Nc3cnc4ccccc4c3)ccc21` [3-(1-Propyl-2,3-dihydro-1H-indol-5-yl)-N-quinolin-3-yl-propionamide], in that order: 1060 nM, 51% and 1070 nM.
Turning to `O=C(CCc1ccc(CC2CCCCC2)cc1)Nc1cnc2ccccc2c1` [3-(4-Cyclohexylmethyl-phenyl)-N-quinolin-3-yl-propionamide], the IC50 was found to be 35 nM in test [1] (setting [5]) and 670 nM in test [1] (setting [3]). The Ki in test [2] (setting [4]) stood at 94.1 nM.
`CCCCCc1ccc(C=CC(=O)Nc2cnc3ccccc3c2)cc1` [3-(4-Pentyl-phenyl)-N-quinolin-3-yl-acrylamide] showed an IC50 in test [1] (setting [5]) of 5200 nM. Also, the Ki in test [2] (setting [4]) worked out at 428 nM.
On the same counts, the results for `CCCCCc1ccc(CCC(=O)Nc2cnc3ccccc3c2)cc1` [3-(4-Pentyl-phenyl)-N-quinolin-3-yl-propionamide] are 590 nM and 181 nM.
As to `CCC(C)c1ccc(CCC(=O)Nc2cnc3ccccc3c2)cc1` (stereo not shown) [3-(4-sec-Butyl-phenyl)-N-quinolin-3-yl-propionamide], the 50% inhibitory concentration (IC50) in test [1] (setting [3]) amounted to 1200 nM. In test [2] (setting [4]), the Ki was 13.9 nM.
For the molecule `CCCCCCCN(C)c1cccc(C(=O)Nc2cnc3ccccc3c2)c1` [3-(Heptyl-methyl-amino)-N-quinolin-3-yl-benzamide], the concentration for half-maximal inhibition (IC50) in test [1] (setting [3]) worked out at 8800 nM. Besides, the inhibition at 1 µM in test [2] (3H-RTX binding) came to 82%. The Ki in test [2] (setting [4]) was 142 nM.
For `CCCCCN(C)c1cccc(C(=O)Nc2cnc3ccccc3c2)c1` [3-(Methyl-pentyl-amino)-N-quinolin-3-yl-benzamide], in that order: 500 nM, 72% and 262 nM.
For the molecule `O=C(Nc1cnc2ccccc2c1)c1cccc(NC2CCCCC2)c1` [3-Cyclohexylamino-N-quinolin-3-yl-benzamide], the IC50 in test [1] (setting [3]) came out at 3200 nM. Moreover, the inhibition at 1 µM in test [2] (3H-RTX binding) turned out to be 1%.
In test [1] (setting [5]), `CCCCCN(CCCCC)c1cccc(C(=O)Nc2cnc3ccccc3c2)c1` [3-Dipentylamino-N-quinolin-3-yl-benzamide] registered an IC50 of 260 nM. In test [2] (3H-RTX binding), the inhibition at 1 µM was determined as 93%. In test [2] (setting [4]), the Ki was 107 nM.
Consider `CCCCCCCNc1cccc(C(=O)Nc2cnc3ccccc3c2)c1` [3-Heptylamino-N-quinolin-3-yl-benzamide], for which the IC50 in test [1] (setting [3]) amounted to 10000 nM. For the same molecule, the inhibition at 1 µM in test [2] (3H-RTX binding) was determined as 20%.
Turning to `O=C(CCc1ccc2c(c1)CCC2)Nc1cnc2ccccc2c1` [3-Indan-5-yl-N-quinolin-3-yl-propionamide], the IC50 in test [1] (setting [3]) was found to be 10000 nM. Further, the Ki in test [2] (setting [4]) turned out to be 158 nM.
Turning to `CC1(C)CCC(C)(C)c2cc(C=CC(=O)Nc3cnc4ccccc4c3Cl)ccc21` [N-(4-Chloro-quinolin-3-yl)-3-(5,5,8,8-tetramethyl-5,6,7,8-tetrahydro-naphthalen-2-yl)-acrylamide], the IC50 in test [1] (setting [3]) amounted to 30 nM.
Same read-out and setting: with `CN(c1ccc(C(=O)Nc2cnc3ccccc3c2Cl)cc1)C1CCCCC1` [N-(4-Chloro-quinolin-3-yl)-4-(cyclohexyl-methyl-amino)-benzamide] the figure was 107 nM; with `CC1(C)CCC(C)(C)c2cc(C=CC(=O)Nc3cnc4ccccc4c3)ccc21` [N-Quinolin-3-yl-3-(5,5,8,8-tetramethyl-5,6,7,8-tetrahydro-naphthalen-2-yl)-acrylamide], 65 nM.
